Source: ChEMBL document CHEMBL3627687, “Sesquiterpenes from Carpesium macrocephalum inhibit Candida albicans biofilm formation and dimorphism” (Bioorg Med Chem Lett, 2015)
≈ marks a conversion by molar mass, not a printed value.

Assays:
Candida albicans [1] = assay: Antifungal activity against Candida albicans SC5314 assessed as inhibition of yeast cell to hyphae transition after 4 hrs by microscopic analysis; assay type: functional, organism-based; details: SC5314, 4 h
Candida albicans [2] = assay: Antifungal activity against Candida albicans SC5314 assessed as inhibition of biofilm formation by XTT assay; assay type: functional, organism-based
Candida albicans [3] = assay: Antifungal activity against Candida albicans SC5314 by CLSI standard M27-A3 method; assay type: functional

| SMILES | IC50 (Candida albicans [1]) | IC50 (Candida albicans [2]) | MIC50 (Candida albicans [3]) |
| --- | --- | --- | --- |
| C=C1C(=O)O[C@H]2C[C@H](C)[C@@H]3CC[C@@]4(C)O[C@@]34C[C@H]12 | 106 µg/mL (≈ 429 µM) | 38 µg/mL (≈ 153 µM) |  |
| C=C1C(=O)O[C@@H]2C[C@H](C)C(CCC(C)O)=CC[C@H]12 (stereo not given in full) | > 128 µg/mL | > 128 µg/mL |  |
| C=C1C(=O)O[C@@H]2C[C@@]3(C)CCC[C@H](C)[C@@]34O[C@H]4[C@H]12 | 118 µg/mL (≈ 477 µM) | > 128 µg/mL |  |
| C=C1C(=O)O[C@@H]2C[C@]3(C)[C@@H](CCC(C)=O)[C@@H]3C[C@H]12 | 100 µg/mL (≈ 403 µM) | > 128 µg/mL |  |
| C=C1C(=O)O[C@@H]2C[C@H](C)C(CCC(C)OC(=O)C(C)CC)=CC[C@H]12 (stereo not given in full) | 105 µg/mL (≈ 314 µM) | > 128 µg/mL |  |
| C=C(C(=O)O)[C@@H]1CC[C@@]2(C)CCC=C(C)C2C1 (stereo not given in full) | > 128 µg/mL | > 128 µg/mL |  |
| OC(Cn1cncn1)(Cn1cncn1)c1ccc(F)cc1F [FLUCONAZOLE] |  | 2 µg/mL (≈ 6.53 µM) |  |
| C=C1C(=O)O[C@@H]2C[C@@]3(C)C[C@@H](O)CC(=C)[C@@H]3C[C@H]12 [IVALIN] | > 128 µg/mL | 15.4 µg/mL (≈ 62 µM) |  |
| C=C1C(=O)O[C@@H]2C[C@@]3(C)CCCC(=C)[C@]3(O)C[C@H]12 [TELEKIN] | > 128 µg/mL | 36 µg/mL (≈ 145 µM) |  |
| C=C1C(=O)O[C@@H]2C[C@H](C)C(CCC(C)=O)=CC[C@H]12 [TOMENTOSIN] | 31.6 µg/mL (≈ 127 µM) | > 128 µg/mL | 128 µg/mL (≈ 515 µM) |
